Source: US4510136A (priority 1983, dated 1985)

How the values were obtained:
Assay type in all cases: in vivo
Helminthosporium maydis = assay: Southern corn leaf blight control on sprayed corn seedlings (Example 83); settings: Bipolaris maydis, 192 h, 100 ppm spray, day before inoculation
Experimental: The compounds of the previous examples were again dissolved in acetone in an amount equal to 6% of the final volume and then suspended at a concentration of 100 ppm in purified water containing 250 ppm of the surfactant TREM 014 (polyhydric alcohol esters). These suspensions were sprayed to the point of run-off on corn seedlings. The following day, the plants were inoculated with a spore suspension of Helminthosporium maydis, causal agent of southern corn leaf blight, and incubated in a saturated humidity chamber at 20° for 24 hours and then in a growth room for an additional 7 days, when disease ratings were made. Treated plants from successful treatments had few or no lesions while the untreated plants had numerous lesions on each leaf. Phytotoxicity expressed as growth reduction was observed on some of the plants in association with disease control.

Cercospora arachidicola = assay: Peanut early leafspot control on sprayed peanut seedlings (Example 84); settings: Mycosphaerella arachidis, 360 h, read-out: % Control Peanut Easly Leafspot; for pest or weed control at 100 ppm: 100 ppm spray, day before inoculation
Experimental: These suspensions were sprayed to the point of run-off on peanut seedlings. The following day, the plants were inoculated with a spore suspension of Cercospora arachidicola, causal agent of peanut early leafspot, and incubated in a saturated humidity chamber at 27° for 24 hours and then in a growth room for an additional 14 days, when disease ratings were made. Treated plants from successful treatments had few or no leafspots while the untreated plants had numerous leafspots.

Venturia inaequalis = assay: Apple scab control on sprayed apple seedlings (Example 82); settings: Venturia inaequalis, 100 ppm spray, day before inoculation
Experimental: These suspensions were sprayed to the point of run-off on apple seedlings. The following day, the plants were inoculated with a spore suspension of the fungus Venturia inaequalis, causal agent of apple scab, and incubated in a saturated humidity chamber at 20° for 24 hours and then in a growth room for an additional 10-12 days. Treated plants from successful treatments had fewer apple scab lesions when compared to untreated plants which were covered with scab lesions. Phytotoxicity expressed as growth reduction was observed on some of the plants in association with disease control.

[1] = tested on: Puccinia recondita var. tritici; assay: Wheat leaf rust control on sprayed wheat seedlings (Example 79); settings: Puccinia recondita, 168 h; for pest or weed control at 100 ppm: 100 ppm spray, day before inoculation
Experimental: The compounds of this invention were dissolved in acetone in an amount equal to 6% of the final volume and then suspended at a concentration of 100 ppm in purified water containing 250 ppm of the surfactant TREM 014 (polyhydric alcohol esters). These suspensions were sprayed to the point of run-off on wheat seedlings. The following day, the plants were inoculated with a spore suspension of Puccinia recondita var. tritici, causal agent of wheat leaf rust, and incubated in a saturated humidity chamber at 20° for 24 hours and then in a growth room for an additional 7 days, when disease ratings were made. Treated plants from successful treatments had few or no rust pustules while the untreated plants had numerous rust pustules on each leaf.

Rhizoctonia solani = assay: Rice sheath blight control on sprayed rice seedlings (Example 87); settings: Rhizoctonia solani, 168 h, 100 ppm spray, day before inoculation
Experimental: The compounds of the previous examples were again dissolved in acetone in an amount equal to 6% of the final volume and then suspended at a concentration of 100 ppm in purified water containing 250 ppm of the surfactant TREM 014 (polyhydric alcohol esters). This suspension was sprayed to the point of run-off on rice seedlings. The following day, the plants were inoculated with a mixture of bran and the mycelium of Rhizoctonia solani, causal agent of sheath blight of rice, and incubated in a growth room for 7 days. Disease ratings were then made. Treated plants from successful treatments had little sheath blight in contrast to untreated plants which were covered with sheath blight.

Erysiphe cichoracearum = assay: Cucumber powdery mildew control on sprayed cucumber seedlings (Example 80); settings: Golovinomyces cichoracearum, 168 h, 100 ppm spray, day before inoculation
Experimental: These suspensions were sprayed to the point of run-off, on cucumber seedlings. The following day, the plants were inoculated with a spore suspension of the fungus Erysiphe cichoracearum, causal agent of cucumber powdery mildew, and incubated in a growth room for 7 days. Disease ratings were then made. Treated plants from successful treatments had little or no powdery mildew in contrast to untreated plants which were covered with powdery mildew. Phytotoxicity in the form of growth reduction or hormonal effects was observed on some of the plants in association with disease control.

Pyricularia oryzae = assay: whole plant or invertebrate; settings: Pyricularia oryzae, 168 h, read-out: % Control of Rice Blast, 100 ppm spray, day before inoculation
Phytophthora infestans = assay: whole plant or invertebrate; settings: Phytophthora infestans, in Solanum lycopersicum, 168 h, read-out: % Control of Tomato Late Blight, 100 ppm spray, day before inoculation

SMILES | pest or weed control at 100 ppm (Helminthosporium maydis) [%] | pest or weed control at 100 ppm (Cercospora arachidicola) [%] | pest or weed control at 100 ppm (Venturia inaequalis) [%] | pest or weed control at 100 ppm [1] [%] | pest or weed control at 100 ppm (Rhizoctonia solani) [%] | pest or weed control at 100 ppm (Erysiphe cichoracearum) [%] | pest or weed control at 100 ppm (Pyricularia oryzae) [%] | pest or weed control at 100 ppm (Phytophthora infestans) [%] | pest or weed control at 20 ppm (Cercospora arachidicola; applied at 20 ppm) [%] | pest or weed control at 200 ppm ([1]; applied at 200 ppm) [%]
C[Si](O)(Cn1cncn1)c1ccc(-c2ccccc2)cc1 (centres unmarked) [(1,1'-Biphenyl-4-yl)hydroxy(methyl)(1H-1,2,4-triazol-1-ylmethyl)silane] | 0 | 100 | 100 | 90 | 0 | 100 | 0 | 0 | – | –
CC(C)O[Si](C)(Cn1cncn1)c1ccc(-c2ccccc2)cc1 (centres unmarked) [(1,1'-biphenyl-4-yl)methyl(2-propoxy)(1H-1,2,4-triazol-1-ylmethyl)silane] | 90 | 100 | 100 | 100 | 0 | 100 | 0 | 0 | – | –
CC(C)(C)O[Si](C)(Cn1cncn1)c1ccccc1 (centres unmarked) [(1,1-dimethylethoxy)methyl(phenyl)(1H-1,2,4-triazol-1-ylmethyl)silane] | 0 | 0 | 0 | 0 | 0 | 100 | 0 | 0 | – | –
C[Si](C)(Cn1cncn1)c1cc(Cl)cc(Cl)c1 [(3,5-Dichlorophenyl)dimethyl(1H-1,2,4-triazol-1-ylmethyl)silane] | 40 | 0 | 0 | 80 | 0 | 0 | 0 | 0 | – | –
C[Si](C)(Cn1cncn1)c1cccc(Cl)c1 [(3-Chlorophenyl)dimethyl(1H-1,2,4-triazol-1-ylmethyl)silane] | 0 | 0 | 60 | 0 | 0 | 0 | 0 | 0 | – | –
C[Si](C)(Cn1cncn1)c1ccc(-c2ccc(Br)cc2)cc1 [(4'-Bromo-1,1'-biphenyl-4-yl)dimethyl(1H-1,2,4-triazol-1-ylmethyl)silane] | 70 | 100 | 100 | 100 | 90 | 100 | 90 | 30 | – | –
CCCC[Si](C)(Cn1cncn1)c1ccccc1 (centres unmarked) [Butyl(methyl)phenyl(1H-1,2,4-triazol-1-ylmethyl)silane] | 0 | 0 | 80 | 0 | 90 | 100 | 90 | 0 | – | –
C[Si](C)(Cn1cncn1)c1cccc(C(F)(F)F)c1 [Dimethyl(1H-1,2,4-triazol-1-ylmethyl)(3-trifluoromethylphenyl)silane] | 0 | 0 | 0 | 0 | 0 | 100 | 0 | 0 | – | –
C[Si](C)(Cn1cncn1)c1ccc(S(C)(=O)=O)cc1 [Dimethyl(4-methylsulfonylphenyl)(1H-1,2,4-triazol-1-ylmethyl)silane] | 0 | 0 | 0 | 0 | 0 | 0 | 70 | 0 | – | –
CSc1ccc([Si](C)(C)Cn2cncn2)cc1 [Dimethyl(4-methylthiophenyl)(1H-1,2,4-triazol-1-ylmethyl)silane] | 80 | 0 | 60 | 0 | 0 | 100 | 0 | 0 | – | –
CCCCCCCCCCCCCCCCCC[Si](C)(C)Cn1cncn1 [Dimethyl(octadecyl)(1H-1,2,4-triazol-1-ylmethyl)silane] | 0 | 0 | 60 | 0 | 0 | 0 | 0 | 0 | – | –
CC(C)O[Si](C)(Cn1cncn1)c1ccccc1 (centres unmarked) [Methyl(phenyl)(2-propoxy)(1H-1,2,4-triazol-1-ylmethyl)silane] | 0 | 0 | 0 | 0 | 0 | 100 | 0 | 0 | – | –
Cc1ccc([Si](C)(Cn2cncn2)c2ccc(C)cc2)cc1 [Methyl[bis(4-methylphenyl)](1H-1,2,4-triazol-1-ylmethyl)silane] | 0 | 0 | 0 | 0 | 30 | 0 | 80 | 0 | – | –
Fc1ccc([Si](Cn2cncn2)(O[Si](Cn2cncn2)(c2ccc(F)cc2)c2ccc(F)cc2)c2ccc(F)cc2)cc1 [Oxybis[bis(4-fluorophenyl)(1H-1,2,4-triazol-1-ylmethyl)silane]] | 97 | – | 100 | 100 | 0 | 100 | 50 | 0 | 93 | –
CC(C)(C)c1ccc([Si](C)(C)Cn2cncn2)cc1 [[4-(1,1-Dimethylethyl)phenyl]dimethyl(1H-1,2,4-triazol-1-ylmethyl)silane] | 60 | 35 | 0 | – | 90 | 0 | 90 | 0 | – | 80
C[Si](Cn1cncn1)(c1ccccc1Cl)c1ccccc1Cl [[bis(2-Chlorophenyl)]methyl(1H-1,2,4-triazol-1-ylmethyl)silane] | 60 | 100 | 40 | 100 | 60 | 100 | 90 | 0 | – | –
